The test system of test [1] is corn rust (Puccinia sorghi Schw). As to the kind of experiment: Protective effect against corn rust on potted plants. Particulars: protectant activity, parallel test. In kind it is in vivo. The protocol:
(§1) Fungicidal activity of the compounds in the present invention against many kinds diseases were carried out. The procedure of fungicidal activity determination is as follows:
(§2) The fungicidal activity was tested in vivo manner on the potted plants. The test compounds of the present invention were dissolved in proper solvent (choosing the solvent according their dissolving ability to the compounds, the solvents could be acetone, methanol or N,N-dimethylformide, etc. The volume ratio between solvent and liquid sprayed was equal to or less than 0.05) and dilute with water contain 0.1% Tween 80 to given concentrations. Compounds of present invention was sprayed onto the leaves of seedling according to the designed concentration. Meanwhile, water was set as the blank control, three replicates were set for each treatment, the spore suspension were inoculated on the second day after treatment, then the plants were placed in an artificial climate chamber (temperature: day 25° C., night 20° C., relative humidity 95 to 100%). 24 hours later, the plants were moved to green house to cultivated. The plants which not need to control humidity was inoculated spore suspension in green house and cultivated in green house directly. The results were investigated after the plants were fully infected relative to the blank control (usually one week). The test results grading 100-0 refers to the <A Manual of Assessment Keys for Plant Diseases> which edited by American Phytopathological Society. “100” refer to no infection and “0” refer to the most serious infection
Protective effect against corn rust (Puccinia sorghi Schw):
According the test method described above, parallel test were carried out between compounds 1, 3, 7, 9, 11 and 21 of present invention and the known compounds KC1, KC2, KC3 and KC4.

Test [2] concerns cucumber downy mildew (Pseudoperonospora cubensis (Berk.et Curt.) Rostov). As to the kind of experiment: Protective effect against cucumber downy mildew on potted plants. It counts as in vivo. Particulars: 400 ppm, protectant activity, parallel test. How it is done:
as §1, §2
Protective effect against cucumber downy mildew (Pseudoperonospora cubensis (Berk.et Curt.) Rostov)
According the test method described above, parallel test were carried out between compounds 2 and 11 of present invention and the known compounds KC1, KC2, KC3 and KC4 (they are the compounds 7g, 7f and 7a in Chinese Journal of Pesticide Science, 2011, 13(6): 576-580 and compound of 11 in CN1646494A, respectively).

`CC(C)Oc1cccc(NC(=O)c2cn(C)nc2C(F)F)c1` [Compound 1]: in test [1], the pest or weed control – broadly, the degree to which the test organism was suppressed or injured, in per cent – at 6.25 ppm is 100% and the pest or weed control at 25 ppm worked out at 100%.

Regarding `CCCC(C)Oc1cccc(NC(=O)c2cn(C)nc2C(F)F)c1` (stereo not drawn) [Compound 3], in test [1], the pest or weed control at 6.25 ppm was 95% and the pest or weed control at 25 ppm came out at 100%.

Regarding `CCC(CC)Oc1cccc(NC(=O)c2cn(C)nc2C(F)F)c1C` [Compound 11], in test [1], the pest or weed control at 6.25 ppm came to 90% and the pest or weed control at 25 ppm turned out to be 100%. The “Control effect against cucumber downy mildew (%)” value (from here on “Control effect … (%)”) in test [2] came out at 90%.

For `C=C(C)Cc1c(NC(=O)c2cn(C)nc2C(F)F)cccc1OC(C)C` [Compound 21], in test [1], the pest or weed control at 6.25 ppm is 90% and the pest or weed control at 25 ppm came to 100%.

In test [1], `Cn1cc(C(=O)Nc2ccccc2)c(C(F)F)n1` [KC1] displayed a pest or weed control at 6.25 ppm of 0% and a pest or weed control at 25 ppm of 60%. Besides, in test [2], the “Control effect … (%)” value is on record as 0%.

In the case of `Cc1ccccc1NC(=O)c1cn(C)nc1C(F)F` [KC2], in test [1], the pest or weed control at 6.25 ppm was found to be 0% and the pest or weed control at 25 ppm came out at 0%. For the same molecule, in test [2], the “Control effect … (%)” value is reported as 0%.

In test [1], `Cc1c(F)cccc1NC(=O)c1cn(C)nc1C(F)F` [KC3] came in with a pest or weed control at 6.25 ppm of 20% and a pest or weed control at 25 ppm of 30%. The “Control effect … (%)” value in test [2] is 0%.

For the molecule `Cn1cc(C(=O)Nc2ccc(F)cc2-c2ccc(Cl)c(Cl)c2)c(C(F)F)n1` [KC4, bixafen], in test [1], the pest or weed control at 6.25 ppm was 0% and the pest or weed control at 25 ppm is 50%. Further, the “Control effect … (%)” value in test [2] amounted to 0%.

Values taken from patent publication US11033029B2, “Pyrazole amide compound and use thereof” (Shenyang Sinochem Agrochemicals R&D Co., Ltd., priority 2013, dated 2021).
